Laboratory results reported in patent EP0752872B1, “NADH OXIDASE AS A TARGET IN DIAGNOSIS AND THERAPY” (Morré, D. James, priority 1994, dated 1995).

Assays:
[1] = system: plasma membrane NADH oxidase; test: Spectrophotometric NADH oxidase assay, rat liver plasma membranes (normal cells); assay type: biochemical; details: for response of the NADH oxidase activity (in words): in the presence of Mg^2+
Method: Purification of plasma membranes from rat liver. A 5000 x g pellet from the preparation of Golgi apparatus (Morré (1971) Meth. Enzymol. 22, 130-148) was the starting material. The fluffy layer which contains the Golgi apparatus fraction was mixed, withdrawn and excluded from the plasma membrane preparations. Cold 1 mM NaHCO3 (5 ml) was added to each tube and the friable yellow-brown upper part of the pellet was resuspended with a pen-brush, leaving the reddish tightly packed bottom part of the pellet undisturbed. The resuspended material was homogenized in aliquots of 5 ml each in a 30 ml stainless steel homogenizer (Duragrind) 20 times by hand. The homogenates were combined, diluted with cold 1 mM NaHCO3 (1:1 dilution), and centrifuged at 6000 x g in a HB rotor for 15 min. The supernatant was discarded and the pellet was used for the two-phase separation (Morré & Morré (1989) BioTechniques 7:946-958).
The two-phase system contained 6.4% (w/w) Dextran T-500 (Pharmacia), 6.4% (w/w) polyethylene glycol) 3350 (Fisher), and 5 mM potassium phosphate buffer (pH 7.2) (Morré & Morré, 1989, supra). The homogenate (1 g) was added to the two-phase system and the weight of the system was brought to 8 g with distilled water. The tubes were inverted vigorously for 40 times in the cold (4°C). The phases were separated by centrifugation at 750 rpm (150 x g) in a Sorvall HB 4 rotor for 5 min. The upper phases were carefully withdrawn with a pasteur pipette, divided in half and transferred into 40 ml plastic centrifuge tubes and diluted with cold 1 mM NaHCO3. The purified plasma membranes were collected by centrifugation at 10,000 x g in a HB rotor for 30 min. Plasma membrane pellets were resuspended in 50 mM Tris-Mes buffer (pH 7.2) and stored at -70°C. Proteins were determined using the bicinchoninic acid (BCA) assay (Smith et al. (1985) Anal. Biochem. […]: 76-85) with bovine serum albumin as standard.
(§1) Spectrophometric assay of NADH oxidase. NADH oxidase activity was determined as the disappearance of NADH measured at 340 nm in a reaction mixture containing 25 mM Tris-MES buffer (pH 7.2), 1 mM KCN to inhibit the low levels of contaminating mitochondrial oxidase activity, and 150 µM NADH at 37°C with constant stirring. Activity was measured using a Hitachi U3210 spectrophotometer with continuous recording over two intervals of 5 min each. A millimolar extinction coefficient of 6.22 was used to determine specific activity.

[2] = system: protein disulfide-thiol interchange of HeLa plasma membranes; test: Protein disulfide-thiol interchange (restoration of scrambled RNAse activity, yeast RNA hydrolysis method); assay type: biochemical, human; details: for protein disulfide-thiol interchange, I: column I; for protein disulfide-thiol interchange, II: column II; for protein disulfide-thiol interchange, III: column III
Method: Estimation of protein disulfide isomerase- (PDI) like activity. Two methods were employed to determine PDI or PDI-like activity. […] For the assay, 100 µl was transferred to each of 4 tubes. Yeast RNA (100 µl, 0.33 mg/ml, pH 5.0) was added. After 0 min and 10 min, the reaction was stopped by the addition of 100 µl of 25% percholoric acid containing 0.75% uranyl acetate. The tubes were cooled in an ice bath for 5 min and clarified by centrifugation (2 min, microfuge). The 75 µl of the clear supernatant was diluted to 3.0 ml with water. The absorbance was measured at […] against an unincubated blank. […] To prepare the oxidized, denatured RNAse substrate (scrambled RNAse), native RNAse A (Sigma, Type 1-AS from bovine pancreas) (30 µg/ml) was incubated 1 h at 35°C in 50 mM Tris-acetate, pH 8.6, containing 9 M urea and 130 mM DTT. […] Protein concentration was estimated from spectrophotometric measurement at 280 nm using native RNAse A as standard. For preparation of scrambled RNAse, the reduced RNAse was diluted to 0.5 mg/ml with 0.1 M acetic acid. […] The scrambled product was recovered by acidification to pH 4 with glacial acetic acid and elution from Sephadex G-25 in 0.1 M acetic acid. Fractions containing protein were pooled, adjusted to pH 8 and stored at 4°C.

[3] = system: Protein disulfide-thiol interchange activity of HeLa plasma membrane; test: Protein disulfide-thiol interchange (RNAse activity with cCMP as substrate); assay type: biochemical, human; details: None 1.6
Method: Estimation of protein disulfide isomerase- (PDI) like activity. Two methods were employed to determine PDI or PDI-like activity.
(§2) In the first method, ribonuclease A activity was measured using a spectrophotometric assay based on cCMP as RNAse substrate. Scrambled RNAse (90.363 mg) was incubated together with 0.45 mM cCMP in 50 Mm Tris-MES buffer, pH 6.5, at 30°C in a final volume of 3 ml. […] A variation of this assay was to preincubate scrambled RNAse with transitional endoplasmic reticulum for 20 min in the presence or absence of 1 µM all-trans retinol (using ethanol as control) and in the presence or absence of 1 µM reduced or oxidized glutathione or a mixture of both. After this 20 min of "reactivation" of RNAse, cCMP was added to a final concentration of 0.45 mM to initiate the reaction. The increase of the absorbance at 296 nm was recorded over 25 min and the concentrations of cCMP were determined (E = 0.19 mM^-1cm^-1). Spectrophotometric measurements were with a Hitachi U3210 spectrophotometer with a thermostatic cell compartment maintained at 30°C with continuous stirring.
Preparation of scrambled RNAse substrate. To prepare the oxidized, denatured RNAse substrate (scrambled RNAse), native RNAse A (Sigma, Type 1-AS from bovine pancreas) (30 µg/ml) was incubated 1 h at 35°C in 50 mM Tris-acetate, pH 8.6, containing 9 M urea and 130 mM DTT.
Protein concentration was estimated from spectrophotometric measurement at 280 nm using native RNAse A as standard. For preparation of scrambled RNAse, the reduced RNAse was diluted to 0.5 mg/ml with 0.1 M acetic acid. Solid urea was then added to a final concentration of 10 M after which 0.1 M sarcosine hydrochloride was added and the pH adjusted to 8.5 with 1 M Tris. The mixture then was incubated in the dark for 2-3 days during which time the protein was randomly oxidized. The scrambled product was recovered by acidification to pH 4 with glacial acetic acid and elution from Sephadex G-25 in 0.1 M acetic acid. Fractions containing protein were pooled, adjusted to pH 8 and stored at 4°C.

[4] = system: circulating NADH oxidase in the serum; test: NADH oxidase activity of human serum; assay type: biochemical; details: normal human serum
Method: as §1

native RNAse = target: T1, native RNAse (Bos taurus, UniProt P61823); test: Activity of native RNAse; assay type: biochemical, bovine; details: sulfonylurea 1 µM; for activity of native RNAse, pH 6.0: None 0.15; for activity of native RNAse, pH 6.8: None 0.21
T1 construct: native RNAse A (Sigma, Type 1-AS from bovine pancreas); purchased Sigma Type 1-AS; host or cells: bovine pancreas
T1 sequence (P61823 27-150): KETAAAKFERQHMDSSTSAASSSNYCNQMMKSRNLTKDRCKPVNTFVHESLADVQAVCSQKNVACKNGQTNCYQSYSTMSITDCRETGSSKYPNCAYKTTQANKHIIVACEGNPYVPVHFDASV
Method: as §2, with “substrate.” for “substrate. Scrambled RNAse (90.363 mg) was incubated together with 0.45 mM cCMP in 50 Mm Tris-MES buffer, pH 6.5, at 30°C in a final volume of 3 ml.”, “[…] […]” for “A variation of this assay was to preincubate scrambled RNAse with transitional endoplasmic”

[5] = system: NADH oxidase activity of culture medium with HeLa cells; test: NADH oxidase activity of culture medium with HeLa cells; assay type: biochemical, human
Method: As is characteristic of many ectoproteins of the mammalian cell surface, an NADH oxidase activity is present in the serum and in HeLa cell culture filtrate. The NADH oxidase activity of culture medium with HeLa cells is proportional to time of incubation and to the amount of medium added. […] The activity is inhibited by 85°C for 20 min, trypsin, N-ethyl maleimide and PCMB, and guanosine nucleotides. These activities have properties similar to those of the plasma membrane-bound form. The circulating form appears to have a lower molecular weight (ca. 32 kD) than the membrane-bound form. The circulating NADH oxidase in the serum of cancer patients is inhibited by adriamycin whereas the circulating NADH oxidase in the serum of healthy individuals is not. Further details from this observation are found in the examples.

HeLa cells = test: Growth of HeLa cells in culture; assay type: cell-based, human
Method: Growth of cells. HeLa cells (ATCC CCL2), were grown in 150 cm^2 flasks in Minimal Essential Medium (Gibco), pH 7.4. at 37°C with 10% bovine calf serum (heat-inactivated), plus 50 mg/l gentamycin sulfate (Sigma). Cells were trypsinized with Sigma IX trypsin for 1 to 2 min, harvested by scraping and taken up in TD-tris buffer (140 mM NaCl, 5 mM KCl, 0.7 mM Na2HPO4 and 25 mM Tris, pH 7.4) to a final cell concentration of 0.1 g wet weight (gww) per ml.
The number of cells initially plated was subtracted. The results were averages from duplicate experiments.

[6] = substance alone, thiol addition 1 µM, none 0.11
[7] = substance alone, thiol addition 1 µM, none 0.047
[8] = biphasic response, read-out: Km at low NADH concentrations

CC1=CC(=O)[C@@H](O)[C@]2(C)[C@H]3[C@@]4(O)OC[C@]35[C@H]([C@@H](C)[C@H]4O)[C@@H](O)C(=O)O[C@@H]5C[C@@H]12 [(-)-glaucarubolone]
IC50 ([1]; liver plasma membranes, Figure 3, read-out: final concentration at which the activity was 50% inhibited): ~1 nM

Nc1nc2c(ncn2[C@@H]2O[C@H](COP(=O)(O)OP(=O)(O)O)[C@@H](O)[C@H]2O)c(=O)[nH]1 [GDP]
response of the NADH oxidase activity (in words) [1]: inhibited

N[C@@H](CCC(=O)N[C@@H](CS)C(=O)NCC(=O)O)C(=O)O [GSH, reduced glutathione]
protein disulfide-thiol interchange, I [2, 6]: 0.06 0.D./10 min | protein disulfide-thiol interchange, II [2, 7]: 0.06 0.D./10 min | protein disulfide-thiol interchange, III ([2]; substance alone, thiol addition 1 µM, none 0.021): 0.041 0.D./10 min | Protein disulfide-thiol interchange activity ([3]; thiol treatment, concentration not given): 2.1 nmoles/min/mg protein

Nc1nc2c(ncn2[C@@H]2O[C@H](COP(=O)(O)OP(=O)(O)OP(O)(O)=S)[C@@H](O)[C@H]2O)c(=O)[nH]1 [GTP [γ-S]]
response of the NADH oxidase activity (in words) [1]: inhibited

Nc1nc2c(ncn2[C@@H]2O[C@H](COP(=O)(O)OP(=O)(O)OP(=O)(O)O)[C@@H](O)[C@H]2O)c(=O)[nH]1 [GTP]
inhibition of NADH oxidase activity (in words) [4]: inhibited

Cc1ccc(S(=O)(=O)NC(=O)Nc2ccc(Cl)cc2)cc1 [LY181984, N-(4-methylphenylsulfonyl)-N'-(4-chlorophenyl) urea]
protein disulfide-thiol interchange, I [2, 6]: 0.076 0.D./10 min | protein disulfide-thiol interchange, I ([2]; sulfonylurea with GSH 1 µM): 0.056 0.D./10 min | protein disulfide-thiol interchange, I ([2]; sulfonylurea with GSSG 1 µM): 0.044 0.D./10 min | protein disulfide-thiol interchange, II [2, 7]: 0.049 0.D./10 min | protein disulfide-thiol interchange, II ([2]; sulfonylurea with GSH 1 µM): 0.03 0.D./10 min | protein disulfide-thiol interchange, II ([2]; sulfonylurea with GSSG 1 µM): 0.04 0.D./10 min | protein disulfide-thiol interchange, III ([2]; sulfonylurea with GSH 1 µM): 0.018 0.D./10 min | protein disulfide-thiol interchange, III ([2]; sulfonylurea with GSSG 1 µM): 0.016 0.D./10 min | inhibition of protein disulfide isomerase-like activity (in words) ([2]; plasma membrane vesicles isolated from HeLa cells): inhibited the activity | Protein disulfide-thiol interchange activity ([3]; treatment at 1 µM): 1.0 nmoles/min/mg protein | activity of native RNAse, pH 6.0 (native RNAse): 0.14 µmol/mg/min | activity of native RNAse, pH 6.8 (native RNAse): 0.21 µmol/mg/min

Cc1ccc(S(=O)(=O)NC(=O)Nc2ccccc2)cc1 [LY181985, N-(4-methylphenylsulfonyl)-N'-(phenyl)urea]
activity of native RNAse, pH 6.0 (native RNAse): 0.15 µmol/mg/min | activity of native RNAse, pH 6.8 (native RNAse): 0.21 µmol/mg/min

CCN1C(=O)C=CC1=O [N-ethyl maleimide]
inhibition of NADH oxidase activity (in words) [4]: inhibited | inhibition of NADH oxidase activity (in words) [5]: inhibited

NC(=O)C1=CN([C@@H]2O[C@H](COP(=O)(O)OP(=O)(O)OC[C@H]3O[C@@H](n4cnc5c(N)ncnc54)[C@H](O)[C@@H]3O)[C@@H](O)[C@H]2O)C=CC1 [NADH, reduced pyridine nucleotide]
Km [4, 8]: 25 µM | Km [5, 8]: 15 µM

O=C(O)c1cc[c]([Hg][Cl])cc1 [PCMB, p-chloromercuribenzoate]
inhibition of NADH oxidase activity (in words) [4]: inhibited | inhibition of NADH oxidase activity (in words) [5]: inhibited

Nc1ccc(Cl)cc1 [free chloroaniline, chloroaniline]
inhibition of growth of HeLa cells (in words) (HeLa cells): inactive

aluminum fluoride
response of the hormone- and growth-stimulated NADH oxidase (in words) [1]: weakly inhibitory

mastoparan
response of the hormone- and growth-stimulated NADH oxidase (in words) [1]: activated
